According to patent publication US20070292967A1, “Assay for Ligands of the Ecdysone Receptor” (COMMONWEALTH SCIENTIFIC AND INDUSTRIAL RESEARCH OR, priority 2003, published 2007):
Where “and” joins values, the source holds several entries; their conditions need not be identical. Equal values may be shown once.

How the values were obtained:
LcLBD = assay: removal of bound [3H]ponasterone A from LcLBD by dialysis; type: binding, Lucilia cuprina; settings: dialysis at room temperature
Description: The same equilibrium binding experiments indicated the properties of functional receptor LBD heterodimer molecules in each preparation to be as follows: LcLBD, 21%; MpLBD, 16%; BtLBD, 8.4%. The value for HaLBD was not determined directly, but by indirect methods it was assigned a provisional value of 15%. The relatively low activity values agree with published observations for the full-length Drosophila melanogaster receptor, for which Sage et al. (1986) remark that ‘. . . the binding activity of unloaded receptor is inherently labile when subjected to standard protein purification techniques. Therefore, the ecdysteroid receptor needs to remain loaded with hormone during most manipulations’. While we agree that a much higher proportion of functional receptor protein can be obtained by conducting the purification in the presence of an ecdysteroid ligand (data not shown), the resulting receptor-ligand complex is not suitable for use in ligand-binding assays. Moreover, bound ecdysteroid ligands are slow to dissociate from the recombinant receptor LBDs. […] We therefore routinely purified the recombinant receptor LBD heterodimers in the absence of any ligands, and corrected the concentration values of the purified LBD heterodimer preparations to account for the proportion of non-functional heterodimer that was present. […]

[1] = target: MpLBD, recombinant LBD heterodimer of ecdysone receptor from Myzus persicae; assay: equilibrium binding of [3H]ponasterone A to MpLBD; settings: Langmuir isotherm fit
Description: (§1) Data fitting using a computer algorithm (KalcidaGraph v3.09, Synergy Software) allowed us to obtain Kd values for each receptor-radioligand complex and to ascertain [LBD]tot. Comparison of the [LBD]tot value with the protein concentration of each purified sample indicated the proportion of the recombinant receptor LBD heterodimer molecules that was functional. Testing Fluorescent and Reference Ecdysteroids As Ligands Using a Radioligand-based Assay

[2] = target: LcLBD, recombinant LBD heterodimer of ecdysone receptor from Lucilia cuprina; assay: equilibrium binding of [3H]ponasterone A to LcLBD; settings: Langmuir isotherm fit
Chain of LcLBD, recombinant LBD heterodimer of ecdysone receptor from Lucilia cuprina (O18531 442-677 limits assumed, one chain of several): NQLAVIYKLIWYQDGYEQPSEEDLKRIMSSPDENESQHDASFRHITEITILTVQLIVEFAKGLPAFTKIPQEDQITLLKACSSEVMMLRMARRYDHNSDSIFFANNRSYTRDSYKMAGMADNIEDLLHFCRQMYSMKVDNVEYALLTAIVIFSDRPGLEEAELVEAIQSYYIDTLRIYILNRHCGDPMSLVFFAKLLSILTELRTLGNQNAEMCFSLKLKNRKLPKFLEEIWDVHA
Description: as §1

[3] = target: BtLBD, recombinant LBD heterodimer of ecdysone receptor from Bemisia tabaci; assay: equilibrium binding of [3H]ponasterone A to BtLBD; settings: Langmuir isotherm fit
Description: as §1

[4] = target: HaLBD, recombinant LBD heterodimer of ecdysone receptor from Helicoverpa armigera; assay: equilibrium binding of [3H]ponasterone A to HaLBD; settings: Langmuir isotherm fit
Description: as §1

[5] = test system: Lepidotera versus Diptera; settings: selectivity between insect orders; cited from earlier work

Chain of LcLBD (O18531 442-677 limits assumed): as the sequence (O18531 442-677 limits assumed, one chain of several) above

Molecule: [24,25,26,27-^3H(N)]ponasterone A [[^3H]ponasterone A]
- half-life of the radioligand-receptor complex (LcLBD): about 10 h
- Kd [1]: 0.7 nM and 0.72 nM and ~0.7 nM
- Kd [2]: 1 ± 0.1 nM
- Kd [3]: 1.21 nM and 1.2 nM
- Kd [4]: 2.53 ± 0.12 nM

Molecule: CCc1ccc(C(=O)NN(C(=O)c2cc(C)cc(C)c2)C(C)(C)C)cc1 [RH-5992]
- effectiveness against Lepidotera relative to Diptera [5]: two to three orders of magnitude more effective
